Test system: telo24 DNA (DNA, G4) TTAGGGTTAGGGTTAGGGTTAGGG
Assay: UV-vis titration
Conditions: K+ 100 mM; 10 mM HEPES pH 7.4, 1 mM Na2EDTA; 5 μM porphyrin; error is SE

Kd: 0.93 (0.18) μM
Structure (SMILES): C[n+]1ccc(-c2c3nc(c(-c4cc[n+](C)cc4)c4ccc([nH]4)c(-c4cc[n+](C)cc4)c4nc(c(-c5cc[n+](C)cc5)c5ccc2[nH]5)C=C4)C=C3)cc1

Source: paper PMC12577588 (2025)
